Where two headings read alike, the source gives them in different places.
Legend:
[1] = biological target: T1, serotonin (5-HT) transporter (Rattus norvegicus, UniProt P31652); test: displacement of [3H]paroxetine binding to 5-HT transporter; settings: for 5-HT/DA potency ratio: selectivity for 5-HT over DA transporter; for 5-HT/NE potency ratio: selectivity for 5-HT over NE transporter
T1 construct: from tissue; host or cells: rat frontal cortex

[2] = biological target: T2, dopamine (DA) transporter (Rattus norvegicus, UniProt P23977); test: displacement of [125I]RTI-55 binding to dopamine transporter; settings: [125I]RTI-55, rat striatal membranes
T2 construct: was used to label dopamine transporters in rat striatal membranes; from tissue; host or cells: rat striatum (membranes)
T2 sequence (P23977 whole entry): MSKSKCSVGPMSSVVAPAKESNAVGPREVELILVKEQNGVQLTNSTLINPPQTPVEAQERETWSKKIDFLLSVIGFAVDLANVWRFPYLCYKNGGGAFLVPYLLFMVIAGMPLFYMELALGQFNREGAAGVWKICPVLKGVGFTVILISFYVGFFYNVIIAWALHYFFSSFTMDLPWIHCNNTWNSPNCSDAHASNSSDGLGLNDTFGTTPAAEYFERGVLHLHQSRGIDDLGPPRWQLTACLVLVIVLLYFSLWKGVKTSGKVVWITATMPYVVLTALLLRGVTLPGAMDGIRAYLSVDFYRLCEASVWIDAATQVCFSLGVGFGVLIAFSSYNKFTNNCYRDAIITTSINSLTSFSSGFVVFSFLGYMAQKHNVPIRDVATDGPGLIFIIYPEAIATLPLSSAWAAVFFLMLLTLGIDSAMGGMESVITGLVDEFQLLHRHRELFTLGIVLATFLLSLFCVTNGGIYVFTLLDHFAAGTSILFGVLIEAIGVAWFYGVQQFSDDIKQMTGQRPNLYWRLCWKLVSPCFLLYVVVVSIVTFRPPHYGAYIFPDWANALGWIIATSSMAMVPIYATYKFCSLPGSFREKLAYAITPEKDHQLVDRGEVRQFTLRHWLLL

[3] = biological target: T3, norepinephrine (NE) transporter (Rattus norvegicus, UniProt Q63380); test: displacement of [3H]nisoxetine binding to NE transporter; settings: rat brain membranes
T3 construct: rat brain membranes; from tissue
T3 sequence (Q63380 1-617): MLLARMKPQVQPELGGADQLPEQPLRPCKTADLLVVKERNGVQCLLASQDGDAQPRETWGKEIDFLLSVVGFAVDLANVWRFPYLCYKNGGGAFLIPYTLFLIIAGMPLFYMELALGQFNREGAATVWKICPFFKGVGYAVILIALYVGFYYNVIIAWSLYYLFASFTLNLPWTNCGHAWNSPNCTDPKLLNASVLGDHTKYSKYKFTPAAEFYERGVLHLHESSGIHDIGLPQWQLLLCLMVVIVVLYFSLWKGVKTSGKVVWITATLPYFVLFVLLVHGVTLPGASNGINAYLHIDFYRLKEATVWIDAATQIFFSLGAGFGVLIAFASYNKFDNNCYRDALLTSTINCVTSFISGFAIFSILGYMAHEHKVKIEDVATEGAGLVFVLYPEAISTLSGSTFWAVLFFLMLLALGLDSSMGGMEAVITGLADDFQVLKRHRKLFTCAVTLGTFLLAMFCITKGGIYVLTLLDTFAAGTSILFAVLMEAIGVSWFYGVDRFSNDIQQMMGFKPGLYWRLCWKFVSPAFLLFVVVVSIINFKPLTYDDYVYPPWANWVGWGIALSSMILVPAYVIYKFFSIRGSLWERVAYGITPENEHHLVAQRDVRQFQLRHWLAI

[4] = biological target: T1, serotonin (5-HT) transporter; settings: earlier tropanes (U.S. Ser. No. 08/589,820), 5-HT vs dopamine transporter; cited from earlier work
[5] = [3H]paroxetine, rat frontal cortex

T1 sequence (P31652 whole entry): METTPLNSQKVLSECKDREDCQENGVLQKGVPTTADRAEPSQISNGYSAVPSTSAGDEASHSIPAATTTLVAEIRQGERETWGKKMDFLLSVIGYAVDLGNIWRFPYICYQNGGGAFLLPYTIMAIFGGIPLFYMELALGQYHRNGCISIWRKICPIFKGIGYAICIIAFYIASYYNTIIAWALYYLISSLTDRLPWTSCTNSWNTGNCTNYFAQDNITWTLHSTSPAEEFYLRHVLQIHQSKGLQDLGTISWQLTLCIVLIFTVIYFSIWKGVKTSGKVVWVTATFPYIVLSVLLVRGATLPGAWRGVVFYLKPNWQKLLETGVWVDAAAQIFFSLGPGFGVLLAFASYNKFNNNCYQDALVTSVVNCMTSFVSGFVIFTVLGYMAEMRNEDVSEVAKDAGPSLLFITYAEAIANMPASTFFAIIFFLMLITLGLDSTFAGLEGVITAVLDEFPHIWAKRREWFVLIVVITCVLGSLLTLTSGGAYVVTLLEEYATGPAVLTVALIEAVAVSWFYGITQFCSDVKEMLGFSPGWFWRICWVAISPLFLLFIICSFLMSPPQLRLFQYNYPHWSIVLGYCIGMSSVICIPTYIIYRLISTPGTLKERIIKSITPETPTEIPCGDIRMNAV

SMILES	Ki [1]	5-HT/DA potency ratio [1]	5-HT/NE potency ratio [1]	IC50 [2]	Ki [3]	transporter selectivity (in words) [4]	Ki [1, 5]
C=C(C)c1ccc([C@H]2C[C@@H]3CC[C@@H](N3)[C@H]2C(=O)CC)cc1 (relative stereo) [Example 2]	0.11 ± 0.02 nM	150	850	16 ± 4.9 nM	94 ± 18 nM	–	–
C=C(C)c1ccc([C@H]2C[C@@H]3CC[C@H]([C@H]2C(=O)CC)N3C)cc1 (relative stereo) [Example 1]	0.82 ± 0.38 nM	8.8	970	7.2 ± 2.1 nM	794 ± 110 nM	–	–
CCC(=O)[C@H]1[C@@H](c2ccc(/C=C(/C)I)cc2)C[C@@H]2CC[C@H]1N2 (relative stereo) [Example 13, (Z)-2β-Pr opanoyl-3β-[4-(2-iodopropenyl)phenyl]-8-azabicyclo[3.2.1]octane]	0.131 ± 0.03 nM	507	509	66.5 ± 11.1 nM	66.7 ± 17.1 nM	–	–
C=C(C)c1ccc(C2CC3CCC(N3)C2C(=O)CC)cc1 (stereo not shown) [4-(1-methylethenyl)phenyl derivative]	–	–	–	–	–	most selective compound described in the previous case	–
CCC(=O)C1C(c2ccc3ccccc3c2)CC2CCC1N2C (stereo not shown) [2-naphthyl derivative]	–	–	–	–	–	unselective	–
CCC(=O)[C@H]1[C@@H](c2ccc(/C=C/I)cc2)C[C@@H]2CC[C@H]1N2 (relative stereo) [Example 11, (E)-2β-Propanoyl-3β-[4-(2-iodoethenyl)phenyl]-8-azab icyclo[3.2.1]octane]	0.619 ± 0.078 nM	83	80	51.3 ± 5.6 nM	49.7 ± 10.6 nM	–	–
CCC(=O)[C@H]1[C@@H](c2ccc(-c3cccn3C)cc2)C[C@@H]2CC[C@H]1N2C (relative stereo) [Example 3, 8-Methyl-2β-propanoyl-3β-[4-(N-methyl-2-pyrrolyl)phenyl]-8-azabicyclo[3,2,1]octane]	–	24	> 15,000	703 ± 222 nM	> 10000 nM	–	25.6 ± 4.1 nM
C/C=C/c1ccc([C@H]2C[C@@H]3CC[C@H]([C@H]2C(=O)CC)N3C)cc1 [Example 9, (R)-(E )-8-Methyl-2β-propanoyl-3β-[4-(1-propenyl)phenyl]-8-azabicyclo[3.2.1]octane]	1.17 ± 0.46 nM	1.5	250	1.59 ± 0.66 nM	292 ± 71.7 nM	–	–
CCC(=O)[C@H]1[C@@H](c2ccc(C=C(C)C)cc2)C[C@@H]2CC[C@H]1N2 (relative stereo) [Example 6, 2.beta .-Propanoyl-3β-[4-(2-methylpropenyl)phenyl]-8-azabicyclo[3.2.1]octanem]	0.404 ± 0.1 nM	240	3097	96.3 ± 17.1 nM	1250 ± 124 nM	–	–
CCC(=O)[C@H]1[C@@H](c2ccc(/C=C(\C)I)cc2)C[C@@H]2CC[C@H]1N2 (relative stereo) [Example 12, (E)-2β-Propanoyl-3. beta.-[4-(2-iodopropenyl)phenyl]-8-azabicyclo[3.2.1]octane]	0.566 ± 0.027 nM	708	645	401 ± 73 nM	365 ± 118 nM	–	–
CCC(=O)[C@H]1[C@@H](c2ccc(-c3cccn3C)cc2)C[C@@H]2CC[C@H]1N2 (relative stereo) [Example 4, 2.beta .-Propanoyl-3β-[4-(N-methyl-2-pyrrolyl)phenyl]-8-azabicyclo[3.2.1]octane]	–	590	> 25,000	614 ± 98 nM	> 10000 nM	–	1.05 ± 0.2 nM
C=C(CC)c1ccc([C@H]2C[C@@H]3CC[C@H]([C@H]2C(=O)CC)N3C)cc1 [Example 7, (R)-8-Methyl-2β-propanoyl-3β-[4-(1-ethylethenyl)phenyl]-8-azabicyclo[3.2.1]octanem]	1.13 ± 0.3 nM	20	1000	22.1 ± 7.76 nM	1140 ± 606 nM	–	–
C=C(CC)c1ccc(C2CC3CCC(N3)C2C(=O)CC)cc1 [Example 8, (R)-2. beta.-Propanoyl-3β-[4-(1-ethylethenyl)phenyl]-8-azabicyclo[3.2.1]octane]	0.194 ± 0.1 nM	200	1790	37.9 ± 12.9 nM	347 ± 54.8 nM	–	–
CC=Cc1ccc(C2CC3CCC(N3)C2C(=O)CC)cc1 [Example 10, (R)-(E )-2β-Propanoyl-3β-[4-(1-propenyl)phenyl]-8-azabicyclo[3.2.1]octane]	0.236 nM	8	108	1.94 ± 0.96 nM	25.6 ± 9.6 nM	–	–
CCC(=O)[C@H]1[C@@H](c2ccc(C=C(C)C)cc2)C[C@@H]2CC[C@H]1N2C (relative stereo) [Example 5, 8-Methyl-2β-Propanoyl-3β-[4-(2-methylpropenyl)phenyl]-8-azabicyclo[3.2.1]octane]	–	6	448	51.3 ± 15.5 nM	4130 ± 785 nM	–	9.22 ± 2.4 nM

From patent US6013242A, “Tropane derivatives with selective binding to the serotonin reuptake transporters for treatment of mental illness and as intermediates in the formation of imaging diagnostic agents for depression” (Wake Forest University, priority 1998, dated 2000)
